Consider 16 molecules from ChEMBL document CHEMBL3232869, “Anti-inflammatory components of Euphorbia humifusa Willd” (Bioorg Med Chem Lett, 2014).

Activity calls are given as the source filed them. No cut-off for these calls is given here.

The test system of data set [1] is RAW264.7. Kind of data set: Antiinflammatory activity in mouse RAW264.7 cells assessed as inhibition of LPS-induced nitric oxide production at 10 uM after 18 hrs by griess reaction analysis. In kind it is functional. The settings on record: for inhibition at 10 µM: RAW264.7, 18 h. (The Griess reaction detects nitrite, a stable product of nitric oxide.)
Data set [2] relates to RAW264.7. Kind of data set: Antiinflammatory activity in mouse RAW264.7 cells assessed as inhibition of LPS-induced TNF-alpha secretion after 18 hrs by sandwich ELISA. It is filed as functional, cell-based. The settings on record: RAW264.7, 18 h.
The subject of data set [3] is RAW264.7. Nature of the data set: Antiinflammatory activity in mouse RAW264.7 cells assessed as inhibition of LPS-induced TNF-alpha secretion at 10 uM after 18 hrs by sandwich ELISA. It is filed as functional. The settings on record: for inhibition at 10 µM: RAW264.7, 18 h.
For data set [4], the target named is T1, Bifunctional epoxide hydrolase 2 (Homo sapiens) (UniProt P34913).
T1 sequence (whole entry): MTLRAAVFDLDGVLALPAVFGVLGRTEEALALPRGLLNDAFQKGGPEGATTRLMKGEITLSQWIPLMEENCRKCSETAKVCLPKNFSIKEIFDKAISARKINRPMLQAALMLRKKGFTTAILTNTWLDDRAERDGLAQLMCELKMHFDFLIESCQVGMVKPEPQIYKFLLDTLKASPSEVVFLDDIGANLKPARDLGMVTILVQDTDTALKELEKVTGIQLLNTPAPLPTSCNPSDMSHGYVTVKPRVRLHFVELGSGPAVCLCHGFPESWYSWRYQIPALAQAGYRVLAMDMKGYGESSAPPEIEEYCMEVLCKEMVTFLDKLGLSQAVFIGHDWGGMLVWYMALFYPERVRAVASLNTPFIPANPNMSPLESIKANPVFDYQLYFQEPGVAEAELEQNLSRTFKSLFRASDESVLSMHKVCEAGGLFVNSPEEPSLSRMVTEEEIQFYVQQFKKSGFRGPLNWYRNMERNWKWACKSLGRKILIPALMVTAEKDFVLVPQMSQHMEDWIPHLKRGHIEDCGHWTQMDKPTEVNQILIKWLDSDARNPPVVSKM
Kind of data set: Inhibition of sEH (unknown origin) assessed as substrate PHOME hydrolysis at 25 uM after 1 hr by fluorescence method.

The test system of data set [5] is RAW264.7. Kind of data set: Antiinflammatory activity in mouse RAW264.7 cells assessed as inhibition of LPS-induced nitric oxide production after 18 hrs by griess reaction analysis. In kind it is functional, cell-based. The settings on record: RAW264.7, 18 h.
Data set [6] relates to RAW264.7. Kind of data set: Antiinflammatory activity in mouse RAW264.7 cells assessed as inhibition of LPS-induced nitric oxide production at 0.4 uM after 18 hrs by griess reaction analysis. It is filed as functional, cell-based.
Data set [7] deals with RAW264.7. Nature of the data set: Antiinflammatory activity in mouse RAW264.7 cells assessed as inhibition of LPS-induced TNF-alpha secretion at 0.4 uM after 18 hrs by sandwich ELISA. It is filed as functional, cell-based. Background: ELISA stands for enzyme-linked immunosorbent assay.
Data set [8] relates to RAW264.7. Nature of the data set: Cytotoxicity against mouse RAW264.7 cells assessed as cell viability at 50 uM after 18 hrs by MTT assay in presence of LPS. The settings on record: raw264.7, 18 h. In kind it is cell-based. (Tetrazolium dyes change colour on reduction, which living cells bring about.)
Data set [9] has as its target T2, Bifunctional epoxide hydrolase 2 (Homo sapiens, UniProt P34913).
T2 sequence (P34913 whole entry): T1 sequence (whole entry)
Kind of data set: Inhibition of sEH (unknown origin) assessed as substrate PHOME hydrolysis after 1 hr by fluorescence method.

With `COC/C=C/c1ccc(O[C@@H]2O[C@H](CO)[C@@H](O)[C@H](O)[C@H]2O)c(OC)c1`, the inhibition at 10 µM with RAW264.7 [1] turned out to be 32.9%; in the data set on RAW264.7 [3], 21.5%. Further, the concentration for half-maximal inhibition (IC50) in the data set with RAW264.7 [2] was 16.5 µM; in the data set with RAW264.7 [5], 19.1 µM. Also, in [4], the inhibition was less than 40%. Besides, the inhibition entry in the data set with RAW264.7 [6] and with RAW264.7 [7] was “inactive” each time. Besides, the Activity entry with RAW264.7 [8] was “Non-toxic”.
As to `C[C@@H]1O[C@@H](OC[C@H]2O[C@@H](Oc3c(-c4ccc(O)cc4)oc4cc(O)cc(O)c4c3=O)[C@H](O)[C@@H](O)[C@@H]2O)[C@H](O)[C@H](O)[C@H]1O` [NICOTIFLOROSIDE], the inhibition entry with RAW264.7 [1], in the data set with RAW264.7 [6] and in the data set with RAW264.7 [7] was “inactive” each time. Further, the IC50 with RAW264.7 [2] was 41.5 µM; in the data set on RAW264.7 [5] it was 45.3 µM. The inhibition result in the data set on RAW264.7 [3] was “Active”. Also, the Activity result in the data set on RAW264.7 [8] is “Non-toxic”.
Turning to `CC1=CC[C@@H](C(C)(C)O[C@@H]2O[C@H](CO[C@@H]3OC[C@H](O)[C@H](O)[C@H]3O)[C@@H](O)[C@H](O)[C@H]2O)CC1`, the inhibition result in the data set on RAW264.7 [1] and in the data set on RAW264.7 [3] was “Active” throughout. For the same molecule, in the data set on RAW264.7 [2], the IC50 is more than 50 µM. Also, in [4], the inhibition is less than 40%. The inhibition entry in the data set on RAW264.7 [6] and in the data set on RAW264.7 [7] was “inactive” each time. Moreover, the Activity result in the data set with RAW264.7 [8] is recorded as “Non-toxic”.
With `O=C(O[C@@H]1O[C@@H]2COC(=O)c3cc(O)c(O)c(O)c3-c3c(cc(O)c(O)c3O)C(=O)O[C@H]([C@H]1O)[C@@H]2O)c1cc(O)c(O)c(O)c1` [CORILAGIN], the inhibition result in the data set with RAW264.7 [1] and with RAW264.7 [3] was “Active” in each case. Moreover, the half-inhibitory concentration (IC50) with RAW264.7 [2] was determined as 38.5 µM; with RAW264.7 [5], 25.1 µM. Also, the inhibition in data set [4] was more than 40%. Also, the inhibition result with RAW264.7 [6] and with RAW264.7 [7] was “inactive” in each case. Moreover, the Activity result in the data set on RAW264.7 [8] was “Non-toxic”.
For the molecule `O=C(O[C@H]1[C@H](Oc2c(-c3ccc(O)cc3)oc3cc(O)cc(O)c3c2=O)O[C@H](CO)[C@@H](O)[C@@H]1O)c1cc(O)c(O)c(O)c1`, the inhibition entry in the data set on RAW264.7 [1], in the data set with RAW264.7 [6] and in the data set with RAW264.7 [7] was “inactive” in each case. The IC50 with RAW264.7 [2] turned out to be 17.2 µM; in data set [9] it was 27.4 µM. Moreover, the inhibition at 10 µM with RAW264.7 [3] is 21.5%. Besides, the inhibition in data set [4] was more than 40%. In the data set on RAW264.7 [8], the Activity entry is “Non-toxic”.
For the molecule `CC(=O)O[C@H]1[C@H](OC[C@H]2O[C@@H](Oc3ccc(O)cc3)[C@H](O)[C@@H](O)[C@@H]2O)O[C@@H](C)[C@H](OC(=O)c2ccc(O)cc2)[C@H]1O`, the inhibition entry with RAW264.7 [1], with RAW264.7 [6] and with RAW264.7 [7] was “inactive” in each case. The half-inhibitory concentration (IC50) in the data set on RAW264.7 [2] and in the data set on RAW264.7 [5] was more than 50 µM in each case. In addition, in the data set on RAW264.7 [3], the inhibition entry is “Active”. Besides, in the data set on RAW264.7 [8], the Activity result was “Non-toxic”.
Turning to `COC(=O)c1cc(O)c(O)c(O)c1` [GALLIC ACID METHYL ESTER], in the data set with RAW264.7 [1], the inhibition at 10 µM turned out to be 35.1%. Moreover, the values for the IC50 in the data set on RAW264.7 [2] and with RAW264.7 [5] were 29.4 µM and 11.1 µM, respectively. Moreover, the inhibition result in the data set on RAW264.7 [3] was “Active”. For the same molecule, the inhibition result in the data set on RAW264.7 [6] and with RAW264.7 [7] was “inactive” in each case. Besides, the Activity result in the data set on RAW264.7 [8] is reported as “Non-toxic”.
Take `O=C(O[C@H]1[C@H](Oc2c(-c3ccc(O)c(O)c3)oc3cc(O)cc(O)c3c2=O)O[C@H](CO)[C@@H](O)[C@@H]1O)c1cc(O)c(O)c(O)c1`: the inhibition result with RAW264.7 [1], in the data set on RAW264.7 [6] and in the data set with RAW264.7 [7] was “inactive” each time. Also, the IC50 with RAW264.7 [2] came out at 16.4 µM; in data set [9] it was 18 µM. Further, in the data set with RAW264.7 [3], the inhibition at 10 µM is 21.5%. Besides, the inhibition in [4] is more than 40%. Moreover, the Activity result in the data set with RAW264.7 [8] is recorded as “Non-toxic”.
On to `COC(=O)Cc1c2c3c(cc(O)c(O)c3oc1=O)C(=O)O[C@@H]2C(=O)OC`, for which the inhibition result with RAW264.7 [1] and in the data set with RAW264.7 [3] was “Active” throughout. Also, in the data set on RAW264.7 [5], the IC50 was 19.5 µM. Also, the inhibition result in the data set on RAW264.7 [6] and in the data set on RAW264.7 [7] was “inactive” each time. For the same molecule, the Activity entry in the data set with RAW264.7 [8] was “Non-toxic”.
Take `OC[C@H]1O[C@@H](OCc2ccccc2)[C@H](O)[C@@H]1O`: in the data set with RAW264.7 [1], the inhibition result is “Active”. The values for the concentration for half-maximal inhibition (IC50) in the data set on RAW264.7 [2] and in the data set with RAW264.7 [5] were 18.4 µM and 24.5 µM, respectively. In the data set with RAW264.7 [3], the inhibition at 10 µM amounted to 21.5%. Besides, the inhibition entry in the data set with RAW264.7 [6] and with RAW264.7 [7] was “inactive” each time. Moreover, the Activity result in the data set with RAW264.7 [8] is listed as “Non-toxic”.
Turning to `O=C(CCc1ccc(O)cc1)c1c(O)cc(O)cc1O[C@@H]1O[C@H](CO)[C@@H](O)[C@H](O)[C@H]1O` [PHLORIZIN], the inhibition result in the data set with RAW264.7 [1], with RAW264.7 [6] and with RAW264.7 [7] was “inactive” throughout. Further, the IC50 in the data set with RAW264.7 [2] amounted to 14.4 µM; in [9], 41.7 µM. In addition, in the data set with RAW264.7 [3], the inhibition at 10 µM was 21.5%. Further, the inhibition in data set [4] was more than 40%. In the data set on RAW264.7 [8], the Activity entry is given as “Non-toxic”.
Regarding `COC/C=C/c1ccc(O[C@@H](CO)CO[C@@H]2O[C@H](CO)[C@@H](O)[C@H](O)[C@H]2O)c(OC)c1`, the inhibition entry with RAW264.7 [1] and in the data set on RAW264.7 [3] was “Active” each time. The concentration for half-maximal inhibition (IC50) was 27.2 µM in the data set with RAW264.7 [2] and 28.6 µM in the data set with RAW264.7 [5]. In addition, the inhibition in [4] was less than 40%. The inhibition entry in the data set on RAW264.7 [6] and with RAW264.7 [7] was “inactive” throughout. Moreover, the Activity result with RAW264.7 [8] is recorded as “Non-toxic”.
`COc1cc(/C=C/CO)cc(OC)c1O[C@@H]1O[C@H](CO)[C@@H](O)[C@H](O)[C@H]1O` [SYRINGIN]: the inhibition result in the data set on RAW264.7 [1] and with RAW264.7 [3] was “Active” in each case. Besides, the IC50 in the data set on RAW264.7 [2] worked out at 34.9 µM; with RAW264.7 [5], 24 µM. The inhibition in data set [4] is less than 40%. Further, the inhibition entry in the data set on RAW264.7 [6] and in the data set on RAW264.7 [7] was “inactive” in each case. Besides, in the data set on RAW264.7 [8], the Activity entry was “Non-toxic”.
Consider `Cc1ccc(-c2cc(C(F)(F)F)nn2-c2ccc(S(N)(=O)=O)cc2)cc1` [CELECOXIB], for which the IC50 is 1.28 µM with RAW264.7 [2] and 1.84 µM with RAW264.7 [5].
As for `COC/C=C/c1cc(OC)c(O[C@@H]2O[C@H](CO)[C@@H](O)[C@H](O)[C@H]2O)c(OC)c1`, the inhibition at 10 µM with RAW264.7 [1] came to 30%; in the data set on RAW264.7 [3], 21.5%. Further, the IC50 in the data set with RAW264.7 [2] came to 17.5 µM; with RAW264.7 [5] it was 17.2 µM. For the same molecule, the inhibition entry in the data set with RAW264.7 [6] and with RAW264.7 [7] was “inactive” in each case. Also, the Activity entry in the data set on RAW264.7 [8] was “Non-toxic”.
Consider `O=C(O[C@H]1[C@H](Oc2c(-c3ccc(O)cc3)oc3cc(O)cc(O)c3c2=O)O[C@H](CO)[C@@H](O)[C@@H]1OC(=O)c1cc(O)c(O)c(O)c1)c1cc(O)c(O)c(O)c1`, for which the inhibition result with RAW264.7 [1], in the data set with RAW264.7 [6] and in the data set on RAW264.7 [7] was “inactive” throughout. Also, the inhibition result with RAW264.7 [3] is “Active”. The inhibition in data set [4] is more than 40%. Moreover, the IC50 in data set [9] is 23.8 µM. Further, in the data set with RAW264.7 [8], the Activity result is on record as “Non-toxic”.

For orientation: inhibition means the share of the control response that was lost under treatment. Broadly, the IC50 is the concentration that inhibits the measured activity by half.
